Test results taken from US9120779B2, “Inhibitors of HCV NS5A” (PRESIDIO PHARMACEUTICALS, INC., priority 2008, dated 2015).
Where two headings read alike, the source gives them in different places.

Tested on: HCV genotype 1b replicon in Huh 7 cells
Assay: HCV replicon assay (luciferase readout, 1b_Huh-Luc/Neo-ET cell line)
Format: cell-based
In short: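 Huh 7 cells carrying a bicistronic genotype 1b luciferase replicon treated with compound in triplicate for 72 h. Replicon level read as luciferase activity (Bright-Glo), expressed as % of control; EC50 from a sigmoidal Hill-slope fit, repeated several times.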

[1] = Hepatitis C virus, Huh-7, 72 h, read-out: Inhibition of HCV genotype 1b, Table 3, 72 h incubation
[2] = Hepatitis C virus, Huh-7, 72 h, read-out: Inhibition of HCV genotype 1b, Table 5, 72 h incubation
[3] = Hepatitis C virus, Huh-7, 72 h, read-out: Inhibition of HCV genotype 1b, Table 1, 72 h incubation
[4] = Hepatitis C virus, Huh-7, 72 h, read-out: Inhibition of HCV genotype 1b, Table 4, 72 h incubation

COC(=O)N[C@@H](C(=O)N1CCC[C@H]1c1ncc(C2CCN(c3c(F)cc(-c4cnc([C@@H]5CCCN5C(=O)[C@H](NC(=O)C5CC5)c5ccccc5)[nH]4)cc3F)CC2)[nH]1)c1ccccc1 [compound 480]
EC50 [1]: < 1 nM

CCOC(=O)N[C@@H](C(=O)N1CCC[C@H]1c1ncc(C2CCN(c3c(F)cc(-c4cnc([C@@H]5CCCN5C(=O)[C@H](NC(=O)OC)c5ccccc5)[nH]4)cc3F)CC2)[nH]1)c1ccccc1 [compound 476]
EC50 [1]: < 1 nM

COC(=O)N[C@H](C(=O)N1CCC[C@H]1c1ncc(-c2ccc(C34CCC(c5cnc([C@@H]6CCCN6C(=O)[C@@H](NC6CCOCC6)C(C)C)[nH]5)(CC3)CC4)cc2)[nH]1)C(C)C [compound 2054]
EC50 [2]: 1 to 9.9 nM

COC(=O)N[C@H](C(=O)N1CCC[C@H]1c1ncc(-c2ccc(C34CCC(c5cnc([C@@H]6CCCN6C(=O)[C@@H](NC(=O)OC)[C@H](C)O)[nH]5)(CC3)CC4)cc2)[nH]1)[C@H](C)O [compound 909]
EC50 [2]: 1 to 9.9 nM

CNC(=O)N[C@H](C(=O)N1CCC[C@H]1c1ncc(C23CCC(c4ccc(-c5cnc([C@@H]6CCCN6C(=O)[C@@H](NC(=O)OC)C(C)C)[nH]5)cc4)(CC2)CC3)[nH]1)C(C)C [compound 2099]
EC50 [2]: < 1 nM

CC(C)[C@@H](C(=O)N1CCC[C@H]1c1ncc(-c2ccc(C34CCC(c5cnc([C@@H]6CCCN6C(=O)[C@H](C(C)C)N(C)C)[nH]5)(CC3)CC4)cc2)[nH]1)N(C)C [compound 919]
EC50 [2]: 10 to 999 nM

COC(=O)N(C)[C@H](C(=O)N1CCC[C@H]1c1ncc(-c2ccc(C34CCC(c5cnc([C@@H]6CCCN6C(=O)[C@H](C(C)C)N(C)C(=O)OC)[nH]5)(CC3)CC4)cc2)[nH]1)C(C)C [compound 913]
EC50 [2]: < 1 nM

COC(=O)N[C@H](C(=O)N1CCC[C@H]1c1nc2ccc(-c3ccc4nc([C@@H]5CCCN5C(=O)[C@@H](NC(=O)OC)C(C)C)[nH]c4c3)cc2[nH]1)C(C)C [Compound 850]
EC50 (Hepatitis C virus, Huh-7, 72 h, read-out: Inhibition of HCV genotype 1b, Table 6, 72 h incubation): < 1 nM

COC(=O)N[C@@H](C(=O)N1CCC[C@H]1c1ncc(-c2cc(F)c(N3CCC(c4cnc([C@@H]5CCCCN5C(=O)[C@H](NC(=O)C5CC5)c5ccccc5)[nH]4)CC3)c(F)c2)[nH]1)c1ccccc1 [compound 486]
EC50 [1]: < 1 nM

CCC(C)[C@H](NC(=O)OC)C(=O)N1CCC[C@H]1c1ncc(-c2ccc(C34CCC(c5cnc([C@@H]6CCCN6C(=O)[C@@H](NC(=O)OC)C(C)CC)[nH]5)(CC3)CC4)cc2)[nH]1 (stereo partly drawn) [compound 2092]
EC50 [2]: < 1 nM

CC(C)[C@H](NC(=O)N1CCC(=O)CC1)C(=O)N1CCC[C@H]1c1ncc(-c2ccc(C34CCC(c5cnc([C@@H]6CCCN6C(=O)[C@@H](NC(=O)N6CCC(=O)CC6)C(C)C)[nH]5)(CC3)CC4)cc2)[nH]1 [compound 638]
EC50 [2]: > 1000 nM

COC(=O)N[C@H](C(=O)N[C@@H](C)c1ncc(-c2ccc(C34CCC(c5cnc([C@@H]6CCCN6C(=O)[C@H](NC(=O)OC)c6ccccc6)[nH]5)(CC3)CC4)cc2)[nH]1)C(C)C [compound 2083]
EC50 [2]: < 1 nM

COC(=O)N[C@H](C(=O)N1CCC[C@H]1c1ncc(C23CCC(c4ccc(-c5cnc([C@@H]6CCCN6C(=O)[C@@H](NC(=O)N6CCC(O)CC6)C(C)C)[nH]5)cc4)(CC2)CC3)[nH]1)C(C)C [compound 649]
EC50 [2]: < 1 nM

COC(=O)N[C@@H](C(=O)N(C)[C@@H](C)c1ncc(C2CCN(c3c(F)cc(-c4cnc([C@@H]5CCCN5C(=O)[C@H](NC(=O)OC)c5ccccc5)[nH]4)cc3F)CC2)[nH]1)c1ccccc1 [compound 506]
EC50 [1]: < 1 nM

COC(=O)N[C@@H](C(=O)N1CCC[C@H]1c1ncc(-c2ccc(C34CCC(c5cnc([C@@H]6CCCN6C(=O)[C@@H](c6ccccc6)N(C)C)[nH]5)(CC3)CC4)cc2)[nH]1)c1ccccc1 [compound 618]
EC50 [2]: < 1 nM

COC(=O)N[C@@H](C(=O)N1CCC[C@H]1c1ncc(C2CCC(c3ccc(-c4cnc([C@@H]5CCCN5C(=O)[C@@H](c5ccccc5)N(C)C)[nH]4)cc3)CC2)[nH]1)c1ccccc1 (stereo partly drawn) [compound 377]
EC50 [3]: < 1 nM

COC(=O)N[C@H](C(=O)N1CCC[C@H]1c1ncc(C23CCC(c4ccc(-c5cnc([C@@H]6CCCN6C(=O)[C@H](C(C)C)N6CCC(O)CC6)[nH]5)cc4)(CC2)CC3)[nH]1)C(C)C [compound 2071]
EC50 [2]: < 1 nM

COC(=O)N[C@H](Cc1ccccc1)C(=O)N1CCC[C@H]1c1ncc(C2CCC(c3ccc(-c4cnc([C@@H]5CCCN5C(=O)[C@@H](c5ccccc5)N5CCCC5)[nH]4)cc3)CC2)[nH]1 (stereo partly drawn) [compound 375]
EC50 [3]: < 1 nM

COC(=O)N[C@@H](C(=O)N1CCC[C@H]1CNC(=O)C12CCC(c3ccc(-c4cnc([C@@H]5CCCN5C(=O)[C@H](NC(=O)OC)c5ccccc5)[nH]4)cc3)(CC1)CC2)c1ccccc1 [compound 604]
EC50 [2]: < 1 nM

COC(=O)N[C@@H](C(=O)N1CCC[C@H]1c1ncc(-c2cc(F)c(N3CCC(c4cnc([C@@H]5CCCN5C(=O)[C@H](NC(=O)OC(C)(C)C)c5ccccc5)[nH]4)CC3)c(F)c2)[nH]1)c1ccccc1 [compound 460]
EC50 [1]: < 1 nM

CC(C)(C)OC(=O)N[C@@H](C(=O)N1CCC[C@H]1c1ncc(-c2ccc(N3CCC(c4cnc([C@@H]5CCCN5C(=O)[C@H](NC(=O)OC(C)(C)C)c5ccccc5)[nH]4)CC3)c(F)c2)[nH]1)c1ccccc1 [compound 450]
EC50 [1]: < 1 nM

COC(=O)N[C@H](C(=O)N1CCC[C@H]1c1ncc(-c2ccc(C34CCC(c5cnc([C@@H]6CCCN6C(=O)[C@@H](NC(=O)OC6CCOCC6)c6ccccc6)[nH]5)(CC3)CC4)cc2)[nH]1)C(C)C [compound 2107]
EC50 [2]: < 1 nM

C[C@@H](c1ncc(C2CCN(c3c(F)cc(-c4cnc([C@@H]5CCCN5C(=O)[C@H](NC(=O)C5CC5)c5ccccc5)[nH]4)cc3F)CC2)[nH]1)N(C)C(=O)[C@H](NC(=O)C1CC1)c1ccccc1 [compound 511]
EC50 [1]: < 1 nM

COC(=O)N[C@H](C(=O)N[C@@H](C)c1nc2ccc(-c3ccc(-c4ccc5nc([C@@H]6CCCN6C(=O)[C@@H](c6ccccc6)N(C)C)[nH]c5c4)cc3)cc2[nH]1)C(C)C [compound 2037]
EC50 [4]: < 1 nM

COC(=O)N[C@H](C(=O)N1CCC[C@H]1c1nc2ccc(-c3ccc(-c4ccc5nc([C@@H]6CCCN6C(=O)[C@H](C(C)C)N(C)C)[nH]c5c4)cc3)cc2[nH]1)C(C)C [compound 933]
EC50 [4]: < 1 nM

COC(=O)N[C@H](C(=O)N1CCC[C@H]1c1ncc(C23CCC(c4ccc(-c5cnc([C@@H]6CCCN6C(=O)[C@H](NC(=O)OC)c6ccccc6)[nH]5)cc4)(CC2)CC3)[nH]1)[C@@H](C)OC [compound 609]
EC50 [2]: < 1 nM

COC(=O)N[C@@H](C(=O)N1CCC[C@H]1c1ncc(-c2cc(F)c(N3CCC(c4cnc([C@@H]5CCCN5C(=O)[C@H](NC(=O)N5CCOCC5)c5ccccc5)[nH]4)CC3)c(F)c2)[nH]1)c1ccccc1 [compound 473]
EC50 (read-out: Inhibition of HCV genotype 1b, Table 3, 72 h incubation): < 1 nM

CC(C)[C@H](NC(=O)N1CC[C@H](O)C1)C(=O)N1CCC[C@H]1c1ncc(-c2ccc(C34CCC(c5cnc([C@@H]6CCCN6C(=O)[C@@H](NC(=O)N6CC[C@H](O)C6)C(C)C)[nH]5)(CC3)CC4)cc2)[nH]1 [compound 635]
EC50 [2]: < 1 nM

COC(=O)N[C@@H](C(=O)N1CCC[C@H]1c1ncc(-c2ccc(C34CCC(c5cnc([C@@H]6CCCN6C(=O)[C@@H](c6ccccc6)N6CCOCC6)[nH]5)(CC3)CC4)cc2)[nH]1)c1ccccc1 [compound 611]
EC50 [2]: < 1 nM

COC(=O)N[C@@H](C(=O)N1CCC[C@H]1c1ncc(C23CCC(c4ccc(-c5cnc([C@@H]6CCCN6C(=O)[C@H](OC)c6ccccc6)[nH]5)cc4)(CC2)CC3)[nH]1)c1ccccc1 [compound 620]
EC50 [2]: < 1 nM

COC(=O)N[C@H](C(=O)N1CCC[C@H]1c1ncc(-c2ccc(C34CCC(c5cnc([C@@H]6CCCN6C(=O)[C@H](NC(=O)OC6CCOCC6)c6ccccc6)[nH]5)(CC3)CC4)cc2)[nH]1)C(C)C [compound 2108]
EC50 [2]: < 1 nM

COC(=O)N[C@H](C(=O)N1CCC[C@H]1c1ncc(-c2ccc([C@H]3CC[C@H](c4cnc([C@@H]5CCCN5C(=O)[C@@H](NC(=O)OC5CCOCC5)C(C)C)[nH]4)CC3)cc2)[nH]1)C(C)C [compound 945]
EC50 [3]: < 1 nM

COC(=O)N[C@@H](C(=O)N[C@@H](C)c1ncc(C23CCC(c4ccc(-c5cnc([C@@H]6CCCN6C(=O)[C@H](NC(=O)OC)c6ccccc6)[nH]5)cc4)(CC2)CC3)[nH]1)c1ccccc1 [compound 2098]
EC50 [2]: < 1 nM

CC(C)[C@@H](NC(=O)N1CCOCC1)C(=O)N1CCC[C@H]1C(=O)N[C@H]1CC[C@@H](c2ccc(-c3cnc([C@@H]4CCCN4C(=O)[C@H](NC(=O)N4CCOCC4)C(C)C)[nH]3)cc2)CC1 [compound 361]
EC50 [3]: 10 to 999 nM

CNC(=O)N[C@H](C(=O)N1CCC[C@H]1c1ncc(-c2ccc([C@H]3CC[C@H](c4cnc([C@@H]5CCCN5C(=O)[C@H](NC(=O)OC)c5ccccc5)[nH]4)CC3)cc2)[nH]1)C(C)C [compound 2004]
EC50 [3]: < 1 nM

COC(=O)N[C@H](C(=O)N1CCC[C@H]1c1nc2ccc(-c3ccc(-c4ccc5nc([C@H](C)NC(=O)[C@@H](c6ccccc6)N(C)C)[nH]c5c4)cc3)cc2[nH]1)C(C)C [compound 939]
EC50 [4]: < 1 nM

COC(=O)NC(C(=O)N1CCC[C@H]1c1ncc(-c2ccc(C34CCC(c5cnc([C@H](C)NC(=O)[C@@H](NC(=O)OC)C(C)C)[nH]5)(CC3)CC4)cc2)[nH]1)c1ccccc1 (stereo partly drawn) [compound 2105]
EC50 [2]: < 1 nM

CCNC(=O)N[C@@H](C(=O)N1CCC[C@H]1c1ncc(C23CCC(c4ccc(-c5cnc([C@@H]6CCCN6C(=O)[C@@H](NC(=O)OC)C(C)C)[nH]5)cc4)(CC2)CC3)[nH]1)c1ccccc1 [compound 2090]
EC50 [2]: < 1 nM

COC(=O)N[C@H](C(=O)N1CCC[C@H]1c1ncc(-c2ccc(-c3ccc4nc([C@@H]5CCCN5C(=O)[C@@H](NC(=O)OC)[C@@H](C)OC)[nH]c4c3)cc2)[nH]1)[C@@H](C)OC [compound 402]
EC50 (Hepatitis C virus, Huh-7, 72 h, read-out: Inhibition of HCV genotype 1b, Table 2, 72 h incubation): < 1 nM
